From ChEMBL document CHEMBL5465560, “Selectivity Literature for EUbOPEN Chemogenomic Library” (2024)
One block for each molecule: values may come before it.

Tests used:
[1] = molecular target: T1, Tyrosine-protein kinase ITK/TSK (Homo sapiens) (UniProt Q08881); assay: Selectivity interaction (Ambit KINOMEscan and KiNATiv profiling in Jurkat cells) EUB0000090b ITK; format: cell-based; conditions: at 1 µM
T1 sequence (whole entry): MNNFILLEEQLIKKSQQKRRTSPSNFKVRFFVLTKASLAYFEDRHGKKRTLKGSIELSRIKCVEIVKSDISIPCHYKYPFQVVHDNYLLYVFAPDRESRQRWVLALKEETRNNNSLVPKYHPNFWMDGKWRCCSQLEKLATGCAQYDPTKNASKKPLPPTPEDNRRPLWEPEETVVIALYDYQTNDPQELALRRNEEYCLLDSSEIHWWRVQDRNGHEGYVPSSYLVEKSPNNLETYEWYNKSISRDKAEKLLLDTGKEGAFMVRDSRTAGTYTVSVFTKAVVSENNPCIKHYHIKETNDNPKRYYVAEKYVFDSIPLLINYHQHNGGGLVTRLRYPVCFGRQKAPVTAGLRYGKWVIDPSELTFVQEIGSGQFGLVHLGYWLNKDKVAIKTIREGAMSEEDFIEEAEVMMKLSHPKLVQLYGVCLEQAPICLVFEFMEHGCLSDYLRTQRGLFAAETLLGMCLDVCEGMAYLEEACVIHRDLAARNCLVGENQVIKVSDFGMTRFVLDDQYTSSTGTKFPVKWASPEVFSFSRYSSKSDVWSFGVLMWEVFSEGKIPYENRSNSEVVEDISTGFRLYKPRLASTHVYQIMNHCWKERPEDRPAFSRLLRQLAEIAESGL

[2] = molecular target: Mitogen-activated protein kinase 14 (Homo sapiens, UniProt Q16539); assay: Selectivity interaction (Ambit KINOMEscan and KiNATiv profiling in Jurkat cells) EUB0000090b MAPK14; format: cell-based; conditions: at 1 µM
Mitogen-activated protein kinase 14, sequence (Q16539 whole entry): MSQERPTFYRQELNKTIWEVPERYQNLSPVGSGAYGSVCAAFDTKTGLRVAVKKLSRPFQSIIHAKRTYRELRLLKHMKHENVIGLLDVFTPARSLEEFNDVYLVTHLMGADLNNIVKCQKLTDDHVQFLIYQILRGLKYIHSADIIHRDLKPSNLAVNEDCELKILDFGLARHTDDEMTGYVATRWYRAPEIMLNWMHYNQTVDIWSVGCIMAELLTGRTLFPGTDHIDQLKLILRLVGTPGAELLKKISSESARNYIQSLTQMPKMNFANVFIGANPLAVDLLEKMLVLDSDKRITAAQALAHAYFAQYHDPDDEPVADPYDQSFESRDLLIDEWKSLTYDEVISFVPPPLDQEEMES

[3] = molecular target: Dual specificity protein kinase CLK3 (Homo sapiens, UniProt P49761); assay: Selectivity interaction (KinomeScan (DiscoverX)) EUB0001079a CLK3; conditions: at 1 µM
Dual specificity protein kinase CLK3, sequence (P49761 whole entry, looked up): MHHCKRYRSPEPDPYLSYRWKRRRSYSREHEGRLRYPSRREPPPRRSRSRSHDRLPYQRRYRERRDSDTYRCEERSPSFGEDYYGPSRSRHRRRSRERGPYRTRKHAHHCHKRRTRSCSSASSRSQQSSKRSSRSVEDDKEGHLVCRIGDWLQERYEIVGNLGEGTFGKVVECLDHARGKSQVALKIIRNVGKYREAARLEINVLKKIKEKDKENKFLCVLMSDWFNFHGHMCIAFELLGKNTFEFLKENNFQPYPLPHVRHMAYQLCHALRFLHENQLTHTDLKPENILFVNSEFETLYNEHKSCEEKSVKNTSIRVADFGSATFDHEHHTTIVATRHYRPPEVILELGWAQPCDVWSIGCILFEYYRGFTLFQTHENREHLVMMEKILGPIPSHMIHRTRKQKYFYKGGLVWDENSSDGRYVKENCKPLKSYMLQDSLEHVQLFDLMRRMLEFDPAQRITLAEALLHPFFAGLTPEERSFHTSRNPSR

[4] = molecular target: Fibroblast growth factor receptor 2 (Homo sapiens) (UniProt P21802); assay: Selectivity interaction (KinomeScan (DiscoverX)) EUB0001619a FGFR2; conditions: at 1 µM
Fibroblast growth factor receptor 2 (Homo sapiens), sequence (P21802 22-821 limits assumed): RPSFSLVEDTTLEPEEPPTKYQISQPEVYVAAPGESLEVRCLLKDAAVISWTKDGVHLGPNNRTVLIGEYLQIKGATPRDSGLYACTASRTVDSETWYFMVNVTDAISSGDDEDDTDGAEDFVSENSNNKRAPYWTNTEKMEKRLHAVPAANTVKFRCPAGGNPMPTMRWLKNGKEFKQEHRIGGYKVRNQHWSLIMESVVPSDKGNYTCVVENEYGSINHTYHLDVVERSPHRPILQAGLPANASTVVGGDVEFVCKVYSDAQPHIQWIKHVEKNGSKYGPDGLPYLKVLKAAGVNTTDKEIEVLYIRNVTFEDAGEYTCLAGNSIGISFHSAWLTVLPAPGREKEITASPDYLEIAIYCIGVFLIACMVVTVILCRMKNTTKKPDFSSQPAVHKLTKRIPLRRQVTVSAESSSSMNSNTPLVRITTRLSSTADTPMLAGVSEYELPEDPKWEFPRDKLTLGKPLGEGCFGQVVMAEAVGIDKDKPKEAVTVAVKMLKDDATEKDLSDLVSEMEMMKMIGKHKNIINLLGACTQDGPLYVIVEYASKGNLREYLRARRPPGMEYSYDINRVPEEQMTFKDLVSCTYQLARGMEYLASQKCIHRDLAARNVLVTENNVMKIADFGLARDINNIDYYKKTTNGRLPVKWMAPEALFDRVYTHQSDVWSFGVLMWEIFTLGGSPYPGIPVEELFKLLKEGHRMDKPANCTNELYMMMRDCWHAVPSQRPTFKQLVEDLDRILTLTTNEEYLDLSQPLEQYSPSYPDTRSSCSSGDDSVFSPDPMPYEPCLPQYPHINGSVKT

[5] = molecular target: T2, Peripheral plasma membrane protein CASK (Homo sapiens) (UniProt O14936); assay: Selectivity interaction (KinomeScan (DiscoverX)) EUB0001619a CASK; conditions: at 1 µM
T2 sequence (whole entry): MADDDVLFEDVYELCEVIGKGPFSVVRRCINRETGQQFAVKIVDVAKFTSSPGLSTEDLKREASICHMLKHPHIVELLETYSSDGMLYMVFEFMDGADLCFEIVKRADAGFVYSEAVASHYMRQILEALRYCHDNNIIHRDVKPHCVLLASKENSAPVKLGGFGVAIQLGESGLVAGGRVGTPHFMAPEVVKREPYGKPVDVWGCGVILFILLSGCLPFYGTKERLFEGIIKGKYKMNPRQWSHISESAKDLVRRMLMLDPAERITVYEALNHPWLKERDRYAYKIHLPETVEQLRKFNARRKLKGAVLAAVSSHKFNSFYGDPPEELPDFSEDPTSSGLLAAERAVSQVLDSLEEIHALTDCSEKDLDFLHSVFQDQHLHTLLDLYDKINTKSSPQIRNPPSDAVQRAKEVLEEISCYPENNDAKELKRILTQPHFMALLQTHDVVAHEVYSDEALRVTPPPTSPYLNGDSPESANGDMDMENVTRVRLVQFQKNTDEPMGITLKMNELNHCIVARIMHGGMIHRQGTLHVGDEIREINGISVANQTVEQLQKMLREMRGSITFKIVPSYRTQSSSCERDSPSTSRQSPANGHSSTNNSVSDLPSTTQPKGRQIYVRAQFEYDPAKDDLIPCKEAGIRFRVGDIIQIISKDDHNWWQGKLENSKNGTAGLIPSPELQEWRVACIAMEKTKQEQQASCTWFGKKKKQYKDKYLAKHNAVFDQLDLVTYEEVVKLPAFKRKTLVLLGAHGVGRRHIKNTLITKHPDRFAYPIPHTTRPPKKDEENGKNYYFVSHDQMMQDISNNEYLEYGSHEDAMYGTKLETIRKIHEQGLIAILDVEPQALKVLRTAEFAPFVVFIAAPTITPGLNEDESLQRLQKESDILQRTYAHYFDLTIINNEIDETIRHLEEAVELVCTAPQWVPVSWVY

[6] = molecular target: Casein kinase I isoform gamma-2 (Homo sapiens) (UniProt P78368); assay: Selectivity interaction (KinomeScan (DiscoverX)) EUB0000045b CSNK1G2
Casein kinase I isoform gamma-2 (Homo sapiens), sequence (P78368 whole entry, looked up, canonical isoform): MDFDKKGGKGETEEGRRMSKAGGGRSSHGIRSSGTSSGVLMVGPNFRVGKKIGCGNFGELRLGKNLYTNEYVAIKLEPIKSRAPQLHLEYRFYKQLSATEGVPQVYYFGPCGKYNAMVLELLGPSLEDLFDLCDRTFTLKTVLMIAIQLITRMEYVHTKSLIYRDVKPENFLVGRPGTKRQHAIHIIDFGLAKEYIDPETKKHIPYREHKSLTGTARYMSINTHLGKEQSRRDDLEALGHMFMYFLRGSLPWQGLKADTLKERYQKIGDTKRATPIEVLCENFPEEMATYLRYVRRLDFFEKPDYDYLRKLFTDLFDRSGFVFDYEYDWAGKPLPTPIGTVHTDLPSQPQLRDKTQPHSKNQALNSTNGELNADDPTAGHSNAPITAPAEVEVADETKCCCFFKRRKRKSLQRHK

[7] = molecular target: 1-phosphatidylinositol 3-phosphate 5-kinase (Homo sapiens) (UniProt Q9Y2I7); assay: Selectivity interaction (ActivX KiNativ screen (kinase selectivity in THP-1 cell lysates)) EUB0000639a PIKFYVE; format: subcellular; conditions: lysate
1-phosphatidylinositol 3-phosphate 5-kinase (Homo sapiens), sequence (Q9Y2I7 whole entry): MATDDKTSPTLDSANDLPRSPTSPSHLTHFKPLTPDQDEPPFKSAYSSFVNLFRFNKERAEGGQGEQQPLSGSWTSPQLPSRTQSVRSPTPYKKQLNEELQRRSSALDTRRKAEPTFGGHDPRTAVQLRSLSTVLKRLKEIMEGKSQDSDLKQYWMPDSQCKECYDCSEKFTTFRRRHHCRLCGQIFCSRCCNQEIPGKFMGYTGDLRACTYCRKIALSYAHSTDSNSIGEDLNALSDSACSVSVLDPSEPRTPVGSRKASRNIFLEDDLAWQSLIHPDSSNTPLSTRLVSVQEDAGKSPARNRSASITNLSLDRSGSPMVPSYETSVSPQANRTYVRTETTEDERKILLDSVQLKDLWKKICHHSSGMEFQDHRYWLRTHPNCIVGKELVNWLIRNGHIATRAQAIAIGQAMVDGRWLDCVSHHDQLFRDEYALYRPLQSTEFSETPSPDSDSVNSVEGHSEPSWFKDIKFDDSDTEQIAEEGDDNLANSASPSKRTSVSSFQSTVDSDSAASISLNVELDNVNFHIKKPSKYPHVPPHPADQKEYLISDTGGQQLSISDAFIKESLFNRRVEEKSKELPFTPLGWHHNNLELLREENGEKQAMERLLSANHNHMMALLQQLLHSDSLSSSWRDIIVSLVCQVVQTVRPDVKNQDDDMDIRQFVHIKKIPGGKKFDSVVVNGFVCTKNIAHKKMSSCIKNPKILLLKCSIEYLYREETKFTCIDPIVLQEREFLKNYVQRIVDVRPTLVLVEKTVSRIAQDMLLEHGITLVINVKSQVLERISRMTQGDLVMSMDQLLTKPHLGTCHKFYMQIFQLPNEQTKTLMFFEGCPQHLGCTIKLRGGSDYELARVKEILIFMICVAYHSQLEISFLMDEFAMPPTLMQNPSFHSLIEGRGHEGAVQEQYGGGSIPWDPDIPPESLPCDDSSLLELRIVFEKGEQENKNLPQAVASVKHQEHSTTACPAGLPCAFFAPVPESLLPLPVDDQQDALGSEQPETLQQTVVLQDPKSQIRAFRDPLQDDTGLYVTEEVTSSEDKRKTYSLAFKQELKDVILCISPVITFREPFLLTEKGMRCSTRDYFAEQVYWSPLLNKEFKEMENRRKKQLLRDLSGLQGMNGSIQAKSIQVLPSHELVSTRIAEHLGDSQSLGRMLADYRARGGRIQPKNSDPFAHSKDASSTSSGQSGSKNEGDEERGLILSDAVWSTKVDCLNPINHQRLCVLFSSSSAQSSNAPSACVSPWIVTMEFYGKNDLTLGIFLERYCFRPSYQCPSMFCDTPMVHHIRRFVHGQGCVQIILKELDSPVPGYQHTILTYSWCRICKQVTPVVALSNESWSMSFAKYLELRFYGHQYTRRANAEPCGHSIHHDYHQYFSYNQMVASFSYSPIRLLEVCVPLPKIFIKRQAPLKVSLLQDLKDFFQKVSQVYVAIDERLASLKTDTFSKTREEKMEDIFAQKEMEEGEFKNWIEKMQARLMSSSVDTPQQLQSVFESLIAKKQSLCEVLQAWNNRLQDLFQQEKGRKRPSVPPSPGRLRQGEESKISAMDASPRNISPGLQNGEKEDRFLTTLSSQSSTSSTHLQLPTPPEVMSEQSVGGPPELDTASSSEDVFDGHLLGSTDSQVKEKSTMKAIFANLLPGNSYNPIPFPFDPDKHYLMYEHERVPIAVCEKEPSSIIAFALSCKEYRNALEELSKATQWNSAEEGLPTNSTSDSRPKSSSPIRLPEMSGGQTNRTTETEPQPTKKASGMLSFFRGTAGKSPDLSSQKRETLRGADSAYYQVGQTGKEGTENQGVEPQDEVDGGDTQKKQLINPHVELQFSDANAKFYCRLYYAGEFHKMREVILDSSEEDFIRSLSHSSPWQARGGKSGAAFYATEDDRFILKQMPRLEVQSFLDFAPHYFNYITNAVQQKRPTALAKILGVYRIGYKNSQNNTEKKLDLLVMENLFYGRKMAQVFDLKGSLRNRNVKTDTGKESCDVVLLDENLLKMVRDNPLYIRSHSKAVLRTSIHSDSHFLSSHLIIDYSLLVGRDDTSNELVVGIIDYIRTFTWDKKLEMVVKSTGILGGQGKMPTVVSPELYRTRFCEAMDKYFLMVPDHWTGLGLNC

[8] = molecular target: Serine/threonine-protein kinase RIO2 (Homo sapiens) (UniProt Q9BVS4); assay: Selectivity interaction (KinomeScan (DiscoverX)) EUB0000229b RIOK2; conditions: at 10 µM
Serine/threonine-protein kinase RIO2 (Homo sapiens), sequence (Q9BVS4 whole entry, looked up): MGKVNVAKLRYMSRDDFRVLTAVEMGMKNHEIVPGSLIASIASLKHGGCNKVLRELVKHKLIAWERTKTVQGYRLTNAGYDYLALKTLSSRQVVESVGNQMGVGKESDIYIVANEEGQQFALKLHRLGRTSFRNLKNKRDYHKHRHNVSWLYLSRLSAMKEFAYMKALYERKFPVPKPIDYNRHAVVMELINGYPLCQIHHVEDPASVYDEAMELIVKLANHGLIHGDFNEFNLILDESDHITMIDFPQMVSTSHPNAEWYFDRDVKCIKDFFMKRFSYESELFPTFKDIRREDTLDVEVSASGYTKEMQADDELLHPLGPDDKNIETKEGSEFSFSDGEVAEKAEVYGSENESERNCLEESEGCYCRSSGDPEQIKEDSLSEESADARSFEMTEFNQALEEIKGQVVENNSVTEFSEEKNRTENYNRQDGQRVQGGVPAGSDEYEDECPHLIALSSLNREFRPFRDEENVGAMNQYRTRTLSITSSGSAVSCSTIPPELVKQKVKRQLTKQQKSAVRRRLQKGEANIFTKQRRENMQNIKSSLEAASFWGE

Structure (SMILES): CN(C)C/C=C/C(=O)Nc1ccc(C(=O)N2CCCC(Nc3ncc(Cl)c(-c4c[nH]c5ccccc45)n3)C2)cc1 (stereo not drawn)
- % of control [1]: 91%
- % of control [2]: 92%

Structure (SMILES): Nc1cnc(N2CCc3cc(S(=O)(=O)Nc4c(F)cc(Cl)cc4F)cc(N4CCCC4=O)c32)nc1 [TP-020n]
- % of control [3]: 74%

Structure (SMILES): N#Cc1cccc(-c2c[nH]c3ncnc(N4CCOCC4)c23)c1
- % of control [4]: 100%
- % of control [5]: 66%

Structure (SMILES): C=CC(=O)Nc1cc(-n2c(=O)ccc3cnc4ccc(-c5ccc(NS(C)(=O)=O)cc5)cc4c32)ccc1C
- % of control ([6]; at 1 µM): 100%
- % of control ([6]; at 10 µM): 62%

- % of inhibition ([7]; at 0.01 µM): 11%
- % of inhibition ([7]; at 0.04 µM): 8.8%
- % of inhibition ([7]; at 0.2 µM): -0.1%
- % of inhibition ([7]; at 1 µM): 21.3%
- % of inhibition ([7]; at 5 µM): 29.2%
Structure (SMILES): CC[C@@H]1[C@H](F)C(=O)N[C@@H]1COc1nccc2cc(C(N)=O)c(OC)cc12 [ZIMLOVISERTIB]

Structure (SMILES): COc1cc(N(C)c2ccnc3ccc(C(F)(F)F)cc23)cc(OC)c1OC
- % binding [8]: 44%
